Test results: publication PMC5716539, “The acute glucose lowering effect of specific GPR120 activation in mice is mainly driven by glucagon-like peptide 1” (PLoS ONE, 2017)

How the values were obtained:
control CHO cells [1] = assay: DMR assay in control CHO cells; type: cell-based, Chinese hamster; conditions: control CHO cells (empty vector)
Description: (§1) DMR (dynamic mass redistribution) was measured by resonant waveguide grating (RWG) using an Epic biosensor (Corning). CHO-hGPR120, CHO-mGPR120 and CHO cells in DMEM/F-12 (Invitrogen) were cultured in fibronectin coated 384-well Epic plates (Corning) at 37°C, 95% humidity and 5% CO2 for 5 hours with 10% FBS (Sigma), followed by 19 hours without FBS. CHO-hGPR40 cells were cultured at 37°C, 95% humidity and 5% CO2 for 20–24 hours in Ham’s F-12 Nutrient Mix with GlutaMAX (Invitrogen) supplemented with Non-Essential Amino Acids (Gibco) and 10% FBS (Sigma) in fibronectin coated 384-well Epic plates (Corning). Following the incubations culture media was replaced with HBSS (Invitrogen), 20 mM HEPES (Invitrogen), pH 7.4 and 1% DMSO and equilibrated to 26°C in the Epic for thirty min before addition of agonists and detection of DMR.

control CHO cells [2] = assay: Calcium mobilization assay in control CHO cells; type: cell-based, Chinese hamster
Description: (§2) CHO-hGPR120 and CHO cells were cultured in DMEM/F-12 (Invitrogen) with 10% FBS (Sigma) and HEK293-mGPR40 in DMEM (Invitrogen) supplemented with 10% FBS in 384-well poly-D-Lysin coated microplates (Greiner) at 37°C, 95% humidity and 5% CO2. After 19 hours cell media was replaced with Calcium4 dye (Molecular Devices) in HBSS (Invitrogen), 20 mM HEPES (Invitrogen), pH 7.4 and 1.25 mM Probenecid (Sigma). After 1 hour at room temperature agonists were added and calcium mobilization was detected as change in fluorescence (λex = 488 and λem = 540 nm) using a FLIPR^TETRA (Molecular Devices).

[3] = Pharmacokinetic properties; type: in vivo, mice; conditions: insufficient for chronic treatment
STC-1 cells = assay: GLP-1 secretion from STC-1 cells; type: cell-based, mouse; conditions: 2 hours, active GLP-1, vs 0.1% DMSO
Description: STC-1 cells were cultured in DMEM (Invitrogen) supplemented with 10% horse serum (ThermoFisher Scientific), 2.5% FBS (Hyclone) and 1% Penicillin/Streptomycin in 96-well poly-D-Lysine coated plates to 80–90% confluence at 37°C, 5% CO2. Cells were washed and pre-incubated in assay buffer (HBSS with Ca^2+ and Mg^2+ containing 20 mM HEPES, 0.1% BSA (Sigma) and 20 nM sitagliptin (dipeptidyl peptidase 4 (DPP-4) inhibitor), for 30 min in 37°C. GPR120 agonists were added and cells were incubated for 2 hours in 37°C. DMSO (0.1%) was used as control. GLP-1 secretion was measured in the supernatants (GLP-1 active, Millipore) by fluorescence detection. Concentration of active GLP-1 was derived by interpolation from a GLP-1 standard curve.

human GPR120 = biological target: T1, human GPR120 (Homo sapiens, UniProt Q5NUL3); assay: cAMP assay in CHO-hGPR120 cells; type: cell-based; conditions: cAMP production in CHO-hGPR120 cells; mean ± SEM
T1 construct: expressed in transfected cells
T1 sequence (Q5NUL3 1-361): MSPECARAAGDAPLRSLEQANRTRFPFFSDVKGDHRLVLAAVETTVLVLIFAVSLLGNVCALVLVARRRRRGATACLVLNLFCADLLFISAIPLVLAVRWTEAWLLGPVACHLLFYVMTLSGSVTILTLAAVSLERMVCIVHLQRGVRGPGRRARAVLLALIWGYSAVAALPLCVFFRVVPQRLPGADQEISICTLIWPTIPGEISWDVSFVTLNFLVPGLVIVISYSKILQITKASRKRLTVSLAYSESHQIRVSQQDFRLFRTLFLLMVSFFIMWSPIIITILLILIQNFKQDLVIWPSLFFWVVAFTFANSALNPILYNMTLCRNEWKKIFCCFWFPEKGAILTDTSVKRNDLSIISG
Description: (§3) CHO-hGPR120 or CHO cells in HBSS (Invitrogen), 20 mM HEPES (Invitrogen), pH 7.4, 0.01% BSA, 1.5 mM 3-isobutyl-1-methylxanthine (Sigma) and d2-labeled cAMP (CisBio) were incubated with GPR120 agonists (1% DMSO) for 45 min at room temperature in white small-volume 384-well plates (Greiner). The reaction was terminated by addition of conjugate and lysis buffer (CisBio) supplemented with anti-cAMP Cryptate (CisBio).

control CHO cells [4] = assay: cAMP assay in control CHO cells; type: cell-based, Chinese hamster
Description: as §3

[5] = tested on: islets from GPR120 null mice; assay: cAMP production in dispersed islet cells from GPR120 null mice; type: cell-based, mouse; conditions: 10 μM agonist
Description: Mouse islets were isolated from pancreas by collagenase digestion, handpicked under microscope following multiple washing steps and dispersed to single cells using TrypLE Express (Gibco). The dispersed islet cells (20 000 cells/well) were incubated with the GPR120 agonists for 30 min in 96-well black plates (Corning) at 37°C in Krebs ringer phosphate Hepes buffer, pH 7.4, with 11 mM Glucose, 0.1% BSA and 0.5 mM 3-isobutyl-1-methylxanthine followed by addition of d2-labeled cAMP and anti-cAMP Cryptate in conjugation and lysis buffer (Cisbio). Produced cAMP was detected with homogenous time resolved fluorescence (HTRF) (λex = 340 nm, λem = 665 and 615 nm) using a Pherastar (BMG Labtech).

human GPR40 = human GPR40 (Homo sapiens, UniProt O14842); assay: DMR assay in CHO-hGPR40 cells; type: cell-based
human GPR40, sequence (O14842 whole entry): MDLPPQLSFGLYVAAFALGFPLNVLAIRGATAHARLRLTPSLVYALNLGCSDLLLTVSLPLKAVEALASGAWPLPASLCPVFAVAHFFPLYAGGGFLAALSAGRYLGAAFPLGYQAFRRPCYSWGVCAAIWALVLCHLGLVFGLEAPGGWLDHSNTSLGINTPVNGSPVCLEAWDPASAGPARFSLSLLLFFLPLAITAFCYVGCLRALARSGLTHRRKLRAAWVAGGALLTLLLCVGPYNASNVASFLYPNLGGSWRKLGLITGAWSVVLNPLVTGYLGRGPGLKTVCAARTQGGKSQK
Description: as §1

lean male mice = assay: Oral glucose tolerance test (OGTT) in lean male mice; type: in vivo, mouse; conditions: for Glucose excursions following oral glucose administration: oral dosing, different doses, glucose 2 g/kg, vs vehicle; for Dose at which significantly improved glucose tolerance was observed: oral, OGTT lean male mice; for Calculated unbound effective concentration, Ce50: unbound concentration giving 50% decrease in blood glucose over time vs vehicle, turnover model
Description: OGTT tests were performed in lean male mice (body weight 27-32g), randomized on body weight, fasted for 16 hours. An oral glucose load (2 g/kg) was administered 30 min (AZ13581837, 7 and 18 mg/kg) or 60 min (Metabolex-36, 10, 30 and 100 mg/kg) after oral dosing with the GPR120 agonists and blood glucose was measured at -30, 0, 10, 25, 40, 60 and 90 min post glucose administration. The specificity of Metabolex-36 was examined in male GPR120 null mice. The administration time for the GPR120 agonists was optimized depending on the pharmacokinetic profile of each compound, in order to maximize the plasma exposure of the compounds during the experiments.
For OGTT a turnover model with a log-linear drug function was used to model the glucose lowering effect determined as the effective concentration resulting in a 50% decrease in blood glucose over time (Ce50) compared to vehicle. All analyses were performed using Phoenix WinNonlin 6.4 (Certara, Princeton, NJ, USA). The area under the glucose excursion curve was calculated and used for statistical evaluation.

mouse GPR40 = biological target: T2, mouse GPR40 (Mus musculus, UniProt Q76JU9); assay: Calcium mobilization assay in HEK293-mGPR40 cells; type: cell-based
T2 construct: expressed in transfected cells
T2 sequence (Q76JU9 whole entry): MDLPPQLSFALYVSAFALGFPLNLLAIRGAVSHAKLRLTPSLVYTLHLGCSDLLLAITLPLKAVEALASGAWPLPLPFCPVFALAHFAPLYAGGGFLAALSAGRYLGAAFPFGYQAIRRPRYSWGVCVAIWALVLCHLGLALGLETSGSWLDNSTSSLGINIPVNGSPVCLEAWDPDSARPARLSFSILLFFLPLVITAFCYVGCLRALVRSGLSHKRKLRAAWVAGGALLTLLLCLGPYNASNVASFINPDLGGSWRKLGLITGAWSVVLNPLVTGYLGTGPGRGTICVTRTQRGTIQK
Description: as §2

Row | Molecule | DMR response in control CHO cells (control CHO cells [1]) | Calcium response in control CHO cells (control CHO cells [2]) | Pharmacokinetic properties (half-life) [3] | GLP-1 secretion from STC-1 cells (STC-1 cells) | EC50 (human GPR120) [µM] | cAMP levels in control CHO cells (control CHO cells [4]) | cAMP production in islets from GPR120 null mice [5] | DMR response in CHO-hGPR40 cells (human GPR40) | Glucose excursions following oral glucose administration (lean male mice) | Dose at which significantly improved glucose tolerance was observed (lean male mice) [mg/kg] | Calculated unbound effective concentration, Ce50 (lean male mice) [µM] | Activation of mouse GPR40 in calcium mobilization assay (mouse GPR40)
1 | C#Cc1cc(Oc2cccnc2)cc(N2Cc3ccccc3S2(=O)=O)c1 [AZ13581837, 2-(3-ethynyl-5-(3-pyridyloxy)phenyl)-3H-1,2-benzothiazole 1,1-dioxide] | without activity | no response | short half-life | significantly increased GLP-1 secretion | 0.06 ± 0.007 | no increase | no effect | Neither AZ13581837 nor Metabolex-36 were able to induce a DMR response | concentration dependent reduction | 18 | 0.02 | did not activate
2 | 3-(3,5-difluoro-4-((3-methyl-1-phenyl-1H-pyrazol-5-yl)methoxy)phenyl)-2-methylpropanoic acid [Metabolex-36] | without activity | no response | short half-life | significantly increased GLP-1 secretion | 6.7 ± 1 | no increase | no effect | Neither AZ13581837 nor Metabolex-36 were able to induce a DMR response | concentration dependent reduction | 30 | 0.6 | did not activate
